Source: US5006515A, “Pharmaceuticals, phosphorus-containing 2-isoxazolines and isoxazoles contained therein” (Hoechst Aktiengesellschaft, priority 1987, dated 1991)
Read-outs that look alike come from different tables or passages of the source.

Experiments:
[1] = system: cGvH reaction; experiment: Chronic graft-versus-host (cGvH) reaction in the mouse; type: in vivo, female mice of (DBA/2×C57Bl/6)F1 generation; conditions: 6 weeks
Text: Graft-versus-host disease, which derives from an immune reaction originating from the transplant and directed against the host tissue, is characterized, in the acute form which almost always has a fatal outcome, by enlargement of the spleen, swelling of the liver, hypertrophy of the lymph nodes, hemolytic anemia, lowered immunoglobulin and complement levels and diminished immunoreactivity. The chronic form of the disease, which has a somewhat milder course, leads to lymphadenopathy, immune complex glomerulonephritis and excessive formation of non-organ-specific autoantibodies. A syndrome with similar features is systemic lupus erythematosus (SLE) which is likewise one of the autoimmune diseases.
The investigation of the compounds used according to the invention for the progress of the cGvH reaction induced in female mice of (DBA/2×C57Bl/6)F1 generation by two injections of spleen and thymus cells mixed together are carried out in the experimental system described by S. Popovic and R. R. Bartlett (Agents and Actions 21 (1987), 284-286), with 5×10^7 DBA/2 cells, likewise obtained from female donor animals, being administered intravenously in 0.2 ml of culture medium each time at a time interval of 7 days. For a reliable assessment of the outbreak and course of the disease, a group of healthy animals was included as negative control in all experiments. The 6-week oral treatment of the animals with the disease started on day 21 after the first donor cell injection, with the test substances or the pure vehicle (positive control) being administered once a day. The vehicle used was an aqueous CMC (carboxymethylcellulose sodium salt) solution containing 100 mg of CMC per 1. The volume administered was 10 ml per kg body weight. The individual experimental groups each comprised 10 animals.
The action of the products was assessed on the basis of the inhibition of proteinuria and the cGvH index. As a consequence of the destruction of nephrons by deposition of immune complexes on the basement membranes of the glomeruli, the animals with the disease developed pronounced proteinuria, which correlates with the extent of glomerulonephritis and can easily be quantified via the increase in the amount of protein excreted with the urine. The second parameter measured, the cGvH index, relates to the great enlargement of the spleen (splenomegaly) caused by the cGvH reaction. It is defined as the quotient of the product of the spleen and body weights of the animals with the disease and of the product of the corresponding weights of healthy untreated animals on the negative control group, and is a reliable measure of the intensity of the disease (the greater this index, the more severe the disease).

[2] = system: active Arthus reaction; experiment: Active Arthus reaction in the rat; type: in vivo, Sprague-Dawley rats; conditions: for change in vivo at 50 mg/kg / Active Arthus reaction % change: oral dose 50 mg/kg
Experimental: The experimental animals used were female and male Sprague-Dawley rats with a body weight between 80 and 100 g which received subcutaneous injections into the tail-head of 0.5 ml of an emulsion of pertussis vaccine and ovalbumin in liquid paraffin. After two weeks, the rats were divided into groups each of 8 animals. 24 hours and 1 hour before induction of the Arthus reaction by injection of 0.1 ml of a 0.4% strength ovalbumin solution into the right hind paw, the particular test substance or the pure vehicle (positive control) was administered orally, sodium chloride solution was injected into the left paw. One group of unsensitized animals (negative control group) was likewise treated with ovalbumin in order to be able to rule out nonspecific reactions to the protein. The parameter used for measuring the action of the product was the percentage change in the increase in paw volume compared with that in the control group which was sensitized but untreated (positive control) 4 hours after ovalbumin challenge, when the swelling had reached its maximum.

[3] = Acute toxicity; design: species or system mice; conditions: mouse, in vivo, single dose, mortality within 7 days
Experimental: The LD50 values were determined by the standard method via the mortality occurring within 7 days in NMRI (Naval Medical Research Institute) mice (6 animals per dose) after a single intraperitoneal (i.p.) or intravenous (i.v.) dose.

[4] = system: DTH reaction to sheep erythrocytes; experiment: Delayed-type hypersensitivity (DTH) reaction to sheep erythrocytes; type: in vivo, female NMRI mice; conditions: single i.p. dose of 40 mg/kg, maximal stimulation by Example 34 = 100%
Experimental: Groups each comprising 5 female NMRI mice with a body weight of 18 to 20 g were formed, and each animal was given 10^6 or 10^9 sheep red blood cells intravenously. Sheep erythrocytes are regarded in immunology as a standard antigen with which it is possible to check cellular and humoral immunoreactivity, especially the functioning of the T-cell-dependent component of the immune system, the so-called T-helper cells. The test substances were administered, in intraperitoneal doses of 5 to 100 mg/kg in physiological saline, at the same time as the antigen. After 5 days, each animal was given an injection of 2×10^8 sheep erythrocytes into the footpad. 24 hours later, the swelling of the foot was measured. The foot swelling is induced by a skin reaction of the delayed type (DTH reaction) and, as is known to those skilled in the art, is a measure of the cellular immune response (J. Immunol. 101 (1968), 830-845). The test results obtained with the product of Example 34, by way of example, are compiled in Table 7 and illustrate that the compounds of the formula I--administered prophylactically--are able to increase the cellular immune response after immunization with the antigen by stimulation of the T-cell system, with the stimulant action reaching its optimum in this experiment at a dose of 25 mg/kg.

[5] = molecular target: leucine aminopeptidase; experiment: Inhibition of leucine aminopeptidase; type: biochemical; conditions: substrate L-leucine 4-nitroanilide
Experimental: (§1) The activity of the enzyme aminopeptidase B was determined photometrically using the substrate L-lysine 2-naphthylamide at room temperature. […] In the same way, the inhibition of leucine aminopeptidase was investigated using L-leucine 4-nitroanilide as enzyme substrate. The IC50 values are compiled in Table 6.

[6] = system: peritoneal macrophages; experiment: Activation of peritoneal macrophages: chemiluminescence (oxidative metabolism); conditions: single i.p. dose of 40 mg/kg; maximum activation by Example 34 = 100%; 40 mg/kg
[7] = system: peritoneal macrophages; experiment: Stimulation of the release of lysosomal enzymes from peritoneal macrophages (exocytosis); conditions: single i.p. dose of 40 mg/kg; maximum activation by Example 34 = 100%; 40 mg/kg
[8] = molecular target: aminopeptidase B (Homo sapiens, UniProt Q9H4A4); experiment: Inhibition of aminopeptidase B; type: biochemical
Experimental: as §1

[9] = Rattus norvegicus, po, 4 h, 4 h after ovalbumin challenge
[10] = Rattus norvegicus, po, 4 h, read-out: Active Arthus reaction % change

Sequence of aminopeptidase B (Q9H4A4 whole entry, species assumed): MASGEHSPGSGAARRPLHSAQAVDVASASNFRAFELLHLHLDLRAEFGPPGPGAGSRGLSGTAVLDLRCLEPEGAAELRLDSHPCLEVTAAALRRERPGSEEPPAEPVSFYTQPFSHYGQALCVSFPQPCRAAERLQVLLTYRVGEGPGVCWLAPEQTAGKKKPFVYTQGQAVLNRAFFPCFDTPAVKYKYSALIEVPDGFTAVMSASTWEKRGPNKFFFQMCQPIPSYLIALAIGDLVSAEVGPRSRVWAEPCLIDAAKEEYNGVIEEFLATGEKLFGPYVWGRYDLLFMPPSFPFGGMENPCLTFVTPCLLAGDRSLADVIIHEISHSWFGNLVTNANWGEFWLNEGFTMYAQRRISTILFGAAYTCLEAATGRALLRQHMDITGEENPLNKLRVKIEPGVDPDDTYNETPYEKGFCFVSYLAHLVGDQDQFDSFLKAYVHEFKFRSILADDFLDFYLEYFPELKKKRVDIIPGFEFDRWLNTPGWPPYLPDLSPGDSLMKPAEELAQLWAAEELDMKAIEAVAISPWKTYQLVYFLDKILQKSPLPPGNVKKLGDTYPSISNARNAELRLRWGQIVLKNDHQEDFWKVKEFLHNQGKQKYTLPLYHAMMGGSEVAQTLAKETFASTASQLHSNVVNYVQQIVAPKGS

COc1ccc(-c2cc(P(=O)(O)O)on2)cc1 [Example 54]
% inhibition Proteinuria ([1]; oral dose 15 mg/kg/day): 27% | % inhibition cGvH index ([1]; oral dose 15 mg/kg/day): 16% | % inhibition Proteinuria ([1]; oral dose 50 mg/kg/day): 64% | % inhibition cGvH index ([1]; oral dose 50 mg/kg/day): 18% | change in vivo at 40 mg/kg ([2]; Rattus norvegicus, po, 4 h, oral dose 40 mg/kg, 4 h after ovalbumin challenge): -57% | LD50 at 168 h ([3]; iv): > 200 mg/kg

O=P(O)(O)C1CC(c2ccccc2)=NO1 (centres unmarked) [Example 36]
Relative stimulation of the DTH reaction ([4]; 40 mg/kg): 102% | Leucine aminopeptidase IC50 [5]: 56 μug/ml

COP(=O)(OC)C1CC(c2ccccc2)=NO1 (single isomer, unassigned) [Example 60b, Dimethyl (+)- and (-)-3-phenyl-2-isoxazolin-5-ylphosphonate]
Relative stimulation of macrophage activity: Chemiluminescence [6]: 24% | Relative stimulation of macrophage activity: Exocytosis [7]: 63%

COP(=O)(OC)C1CC(c2ccccc2)=NO1 (single isomer, unassigned) [Example 60a, Dimethyl (+)- and (-)-3-phenyl-2-isoxazolin-5-ylphosphonate]
Relative stimulation of macrophage activity: Chemiluminescence [6]: 51% | Relative stimulation of macrophage activity: Exocytosis [7]: 88%

CP(=O)(O)C1CC(c2ccccc2)=NO1 (centres unmarked) [Example 63, 3-Phenyl-2-isoxazolin-5-yl(P-methyl)phosphinic acid]
% inhibition Proteinuria ([1]; oral dose 15 mg/kg/day): 76% | % inhibition cGvH index ([1]; oral dose 15 mg/kg/day): 54% | % inhibition Proteinuria ([1]; oral dose 30 mg/kg/day): 61% | % inhibition cGvH index ([1]; oral dose 30 mg/kg/day): 48% | change in vivo at 50 mg/kg [2, 9]: -48% | LD50 at 168 h ([3]; ip): 300 to 600 mg/kg

O=[N+]([O-])c1ccc(C2=NOC(P(=O)(O)O)C2)cc1 (centres unmarked) [Example 69, 3-(4-Nitrophenyl)-2-isoxazolin-5-ylphosphonic acid]
change in vivo at 50 mg/kg [2, 9]: -20% | LD50 at 168 h ([3]; iv): > 100 mg/kg | Leucine aminopeptidase IC50 [5]: 27 μug/ml

O=C(C1=NOC(P(=O)(O)O)C1)c1ccccc1 (centres unmarked) [Example 53]
Relative stimulation of the DTH reaction [4]: 68% | Leucine aminopeptidase IC50 [5]: 65 μug/ml

O=P(O)(O)C1CC(c2ccccc2)=NO1 (centres unmarked) [Example 37]
Relative stimulation of the DTH reaction ([4]; 40 mg/kg): 77% | Leucine aminopeptidase IC50 [5]: 52 μug/ml

O=P(O)(O)C1CC(c2cccs2)=NO1 (centres unmarked) [Example 75, 3-(2-Thienyl)-2-isoxazolin-5-ylphosphonic acid]
change in vivo at 35 mg/kg [2, 10]: -26% | LD50 at 168 h ([3]; iv): > 100 mg/kg | Leucine aminopeptidase IC50 [5]: 79 μug/ml

COc1ccc(C2=NOC(P(=O)(O)O)C2)cc1 (centres unmarked) [Example 48]
change in vivo at 100 mg/kg ([2]; Rattus norvegicus, po, 4 h, oral dose 100 mg/kg, 4 h after ovalbumin challenge, read-out: Active Arthus reaction % change): 10% | LD50 at 168 h ([3]; ip): 300 to 600 mg/kg | Leucine aminopeptidase IC50 [5]: 100 μug/ml

CCCC1=NOC(P(=O)(O)O)C1 (centres unmarked) [Example 47]
change in vivo at 25 mg/kg [2, 10]: -35% | LD50 at 168 h ([3]; iv): > 200 mg/kg | Leucine aminopeptidase IC50 [5]: 35 μug/ml

O=P(O)(O)C1CC(c2ccccc2)=NO1 (single isomer, unassigned; (-)) [Example 62, (-)-3-Phenyl-2-isoxazolin-5-ylphosphonic acid]
Relative stimulation of the DTH reaction ([4]; 40 mg/kg): 83% | Active Arthus reaction % change ([2]; 4 h after ovalbumin challenge): +16% | Leucine aminopeptidase IC50 [5]: 130 μug/ml

O=P(O)(O)C1CC(c2ccccc2)=NO1 (centres unmarked) [Example 35]
Relative stimulation of the DTH reaction ([4]; 40 mg/kg): 98% | change in vivo at 35 mg/kg ([2]; Rattus norvegicus, po, 4 h, oral dose 35 mg/kg, 4 h after ovalbumin challenge, read-out: Active Arthus reaction % change): -16% | LD50 at 168 h ([3]; iv): > 200 mg/kg | Leucine aminopeptidase IC50 [5]: 57 μug/ml

O=P(O)(O)C1CC(c2ccccc2)=NO1 (single isomer, unassigned; (+)) [Example 61, (+)-3-Phenyl-2-isoxazolin-5-ylphosphonic acid]
Relative stimulation of the DTH reaction ([4]; 40 mg/kg): 108% | Active Arthus reaction % change ([2]; 4 h after ovalbumin challenge): +52% | Leucine aminopeptidase IC50 [5]: 26 μug/ml

COP(C)(=O)C1CC(c2ccccc2)=NO1 (centres unmarked) [Example 13, Methyl 3-phenyl-2-isoxazolin-5-yl(P-methyl)phosphinate]
change in vivo at 50 mg/kg ([2]; Rattus norvegicus, 4 h after ovalbumin challenge): -13% | LD50 at 168 h ([3]; iv): > 200 mg/kg | IC50 [8]: 418 µM
